{"source": "ChEMBL document CHEMBL1782025", "about": "“Archazolid A-15-O-β-D-glucopyranoside and iso-archazolid B: potent V-ATPase inhibitory polyketides from the myxobacteria Cystobacter violaceus and Archangium gephyra” (J Nat Prod, 2011)", "key": {"[1]": {"target": "V-type proton ATPase subunit B (Manduca sexta, UniProt P31401)", "sequence (P31401 whole entry)": "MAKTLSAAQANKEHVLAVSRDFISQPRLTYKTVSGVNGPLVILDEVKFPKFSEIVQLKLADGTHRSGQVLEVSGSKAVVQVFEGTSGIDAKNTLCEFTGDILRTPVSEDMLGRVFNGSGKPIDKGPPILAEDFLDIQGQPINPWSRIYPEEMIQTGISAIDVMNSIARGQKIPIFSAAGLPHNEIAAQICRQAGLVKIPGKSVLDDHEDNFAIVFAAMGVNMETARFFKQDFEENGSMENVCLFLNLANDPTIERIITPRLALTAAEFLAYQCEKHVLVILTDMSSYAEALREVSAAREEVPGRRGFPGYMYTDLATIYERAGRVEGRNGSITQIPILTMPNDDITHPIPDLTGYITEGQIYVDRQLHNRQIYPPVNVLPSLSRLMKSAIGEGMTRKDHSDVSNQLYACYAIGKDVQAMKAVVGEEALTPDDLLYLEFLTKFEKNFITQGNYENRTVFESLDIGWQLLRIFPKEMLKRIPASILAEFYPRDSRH", "test": "Inhibition of Manduca sexta V-ATPase V1/Vo holoenzyme activity assessed as inorganic phosphate production pretreated for 5 mins"}, "L929": {"test_system": "L929", "test": "Antiproliferative activity against mouse L929 cells assessed as growth inhibition after 5 days by MTT assay", "type": "functional", "details": "L929, 120 h"}, "[2]": {"test": "Antiproliferative activity against human KB-3-1 cells after 5 days by MTT assay", "type": "functional", "details": "KB 3-1, 120 h"}, "U-937": {"test_system": "U-937", "test": "Antiproliferative activity against human U937 cells after 5 days by MTT assay", "type": "functional", "details": "U-937, 120 h"}, "SK-OV-3": {"test_system": "SK-OV-3", "test": "Antiproliferative activity against human SKOV3 cells after 5 days by MTT assay", "type": "functional", "details": "SK-OV-3, 120 h"}, "A-431": {"test_system": "A-431", "test": "Antiproliferative activity against human A431 cells after 5 days by MTT assay", "type": "functional", "details": "A-431, 120 h"}, "PC-3": {"test_system": "PC-3", "test": "Antiproliferative activity against human PC3 cells after 5 days by MTT assay", "type": "functional", "details": "PC-3, 120 h"}, "MCF7": {"test_system": "MCF7", "test": "Antiproliferative activity against human MCF7 cells after 5 days by MTT assay", "type": "functional", "details": "MCF7, 120 h"}}, "data": [{"smiles": "CNC(=O)O[C@@H](CC(C)C)c1nc([C@H]2OC(=O)/C(C)=C/C/C(C)=C/[C@@H](O)[C@@H](C)\\C=C(C)/C=C(C)\\C=C\\[C@@H](O)[C@H](C)[C@H](OC)/C(C)=C/C=C/[C@@H]2C)cs1", "note": "[ARCHAZOLID A]", "values": [{"measurement": "IC50", "setting": "[1]", "value": 0.6, "unit": "nmol/mg"}, {"measurement": "GI50", "setting": "L929", "value": 0.81, "unit": "nM"}]}, {"smiles": "CNC(=O)O[C@@H](CC(C)C)c1nc([C@H]2OC(=O)/C=C/C/C(C)=C/[C@@H](O)[C@@H](C)\\C=C(C)/C=C(C)\\C=C\\[C@@H](O)[C@H](C)[C@H](OC)/C(C)=C/C=C/[C@@H]2C)cs1", "note": "[ARCHAZOLID B]", "values": [{"measurement": "IC50", "setting": "[1]", "value": 0.6, "unit": "nmol/mg"}, {"measurement": "GI50", "setting": "L929", "value": 1.1, "unit": "nM"}]}, {"smiles": "CNC(=O)O[C@@H](CC(C)C)c1nc([C@H]2OC(=O)/C(C)=C/C/C(C)=C/[C@@H](O[C@@H]3O[C@H](CO)[C@@H](O)[C@H](O)[C@H]3O)[C@@H](C)\\C=C(C)/C=C(C)\\C=C\\[C@@H](O)[C@H](C)[C@H](OC)/C(C)=C/C=C/[C@@H]2C)cs1", "note": "[ARCHAZOLID C]", "values": [{"measurement": "IC50", "setting": "[1]", "value": 210, "unit": "nmol/mg"}, {"measurement": "GI50", "setting": "L929", "value": 1600, "unit": "nM"}]}, {"smiles": "CNC(=O)O[C@@H](CC(C)C)c1nc([C@H]2OC(=O)/C(C)=C/C/C(C)=C/[C@@H](O[C@@H]3O[C@H](CO)[C@@H](O)[C@H](O)[C@H]3O)[C@@H](C)\\C=C(CO)/C=C(C)\\C=C\\[C@@H](O)[C@H](C)[C@H](OC)/C(C)=C/C=C/[C@@H]2C)cs1", "note": "[ARCHAZOLID D]", "values": [{"measurement": "IC50", "setting": "[1]", "value": 1200, "unit": "nmol/mg"}, {"measurement": "GI50", "setting": "L929", "value": 330, "unit": "nM"}]}, {"smiles": "CNC(=O)O[C@@H](CC(C)C)c1nc([C@H]2OC(=O)/C(C)=C/C/C(C)=C/[C@@H](O)[C@@H](C)\\C=C(C)/C=C(C)\\C=C\\[C@@H](O[C@@H]3O[C@H](CO)[C@@H](O)[C@H](O)[C@H]3O)[C@H](C)[C@H](OC)/C(C)=C/C=C/[C@@H]2C)cs1", "note": "[ARCHAZOLID E]", "values": [{"measurement": "GI50", "setting": "L929", "value": 510, "unit": "nM"}]}, {"smiles": "CNC(=O)O[C@@H](CC(C)C)c1nc([C@H]2OC(=O)C/C=C/C(C)=C/[C@@H](O)[C@@H](C)\\C=C(C)/C=C(C)\\C=C\\[C@@H](O)[C@H](C)[C@H](OC)/C(C)=C/C=C/[C@@H]2C)cs1", "note": "[ARCHAZOLID F]", "values": [{"measurement": "IC50", "setting": "[1]", "value": 0.7, "unit": "nmol/mg"}, {"measurement": "GI50", "setting": "L929", "value": 0.11, "unit": "nM"}, {"measurement": "GI50", "setting": "[2]", "value": 0.042, "unit": "nM"}, {"measurement": "GI50", "setting": "U-937", "value": 0.038, "unit": "nM"}, {"measurement": "GI50", "setting": "SK-OV-3", "value": 0.043, "unit": "nM"}, {"measurement": "GI50", "setting": "A-431", "value": 0.111, "unit": "nM"}, {"measurement": "GI50", "setting": "PC-3", "value": 0.053, "unit": "nM"}, {"measurement": "GI50", "setting": "MCF7", "value": 0.131, "unit": "nM"}]}]}
